Data from ChEMBL document CHEMBL4229531, “Synthesis and evaluation of 1,2,3,4-tetrahydro-1-acridone analogues as potential dual inhibitors for amyloid-beta and tau aggregation” (Bioorg Med Chem, 2018).
Active and inactive are the calls of the source. The calls are words filed in the database; no cut-off is given here.

How the values were obtained:
[1] = biological target: T1, Amyloid-beta precursor protein (Homo sapiens, UniProt P05067); assay: Inhibition of self-induced amyloid beta (1 to 42) (unknown origin) aggregation at 20 uM after 72 hrs by thioflavin T assay relative to control
T1 sequence (P05067 whole entry): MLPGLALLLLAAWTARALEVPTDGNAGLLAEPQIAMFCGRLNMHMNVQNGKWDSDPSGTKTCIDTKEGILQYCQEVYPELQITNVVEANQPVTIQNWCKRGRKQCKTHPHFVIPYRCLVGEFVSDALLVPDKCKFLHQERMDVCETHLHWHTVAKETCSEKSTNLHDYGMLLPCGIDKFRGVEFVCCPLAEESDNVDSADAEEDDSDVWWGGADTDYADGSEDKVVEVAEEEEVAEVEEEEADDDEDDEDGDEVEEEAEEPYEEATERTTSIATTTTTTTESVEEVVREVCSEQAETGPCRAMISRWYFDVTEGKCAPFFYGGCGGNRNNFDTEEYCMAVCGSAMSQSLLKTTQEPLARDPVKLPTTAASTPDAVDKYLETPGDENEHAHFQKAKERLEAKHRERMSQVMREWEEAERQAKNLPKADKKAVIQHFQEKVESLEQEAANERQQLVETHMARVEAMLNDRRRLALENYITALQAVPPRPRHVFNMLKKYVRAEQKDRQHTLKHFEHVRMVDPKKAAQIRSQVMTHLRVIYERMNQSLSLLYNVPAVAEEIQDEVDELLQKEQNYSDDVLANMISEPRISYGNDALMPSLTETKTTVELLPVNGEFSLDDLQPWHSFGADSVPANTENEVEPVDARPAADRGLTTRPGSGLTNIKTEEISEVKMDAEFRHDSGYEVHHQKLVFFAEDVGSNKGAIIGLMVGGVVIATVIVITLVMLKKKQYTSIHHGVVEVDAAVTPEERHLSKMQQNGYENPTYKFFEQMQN

Homo sapiens [2] = organism: Homo sapiens; assay: Inhibition of recombinant full length tau 0N4R (unknown origin) aggregation expressed in Escherichia coli at 20 uM after 72 hrs by thioflavin S assay relative to control
[3] = Permeability of the compound at 100 ug/ml after 10 hrs by artificial membrane permeability assay; format: ADME; settings: PAMPA; read-out: permeability
[4] = Binding affinity to recombinant full length tau 0N4R (unknown origin) expressed in Escherichia coli by surface plasmon resonance assay; design: species or system Homo sapiens
[5] = biological target: T1, Amyloid-beta precursor protein; assay: Inhibition of self-induced amyloid beta (1 to 42) (unknown origin) fibril formation at 20 uM after 24 hrs by uranyl acetate staining-based transmission electron microscopic method
Homo sapiens [6] = organism: Homo sapiens; assay: Inhibition of fibril formation of recombinant full length tau 0N4R (unknown origin) expressed in Escherichia coli at 20 uM after 24 hrs by uranyl acetate staining-based transmission electron microscopic method
[7] = biological target: T1, Amyloid-beta precursor protein; assay: Inhibition of amyloid beta (1 to 42) (unknown origin) beta-sheet formation at 20 uM after 24 hrs by CD spectroscopic method
[8] = biological target: T1, Amyloid-beta precursor protein; assay: Binding affinity to amyloid beta (1 to 42) (unknown origin) by surface plasmon resonance assay
[9] = system: Microtubule-associated protein tau (Mus musculus), P10637 [P243L]; assay: Inhibition of congo red-induced EGFP-tagged Tau P301L mutant (unknown origin) aggregation expressed in HEK293T cells at 1 uM pretreated for 30 mins followed by congo red addition and measured after 24 hrs by DAPI staining-based fluorescence assay; format: cell-based; settings: Homo sapiens
Sequence of Microtubule-associated protein tau (Mus musculus), P10637 [P243L] (P10637 whole entry P243L): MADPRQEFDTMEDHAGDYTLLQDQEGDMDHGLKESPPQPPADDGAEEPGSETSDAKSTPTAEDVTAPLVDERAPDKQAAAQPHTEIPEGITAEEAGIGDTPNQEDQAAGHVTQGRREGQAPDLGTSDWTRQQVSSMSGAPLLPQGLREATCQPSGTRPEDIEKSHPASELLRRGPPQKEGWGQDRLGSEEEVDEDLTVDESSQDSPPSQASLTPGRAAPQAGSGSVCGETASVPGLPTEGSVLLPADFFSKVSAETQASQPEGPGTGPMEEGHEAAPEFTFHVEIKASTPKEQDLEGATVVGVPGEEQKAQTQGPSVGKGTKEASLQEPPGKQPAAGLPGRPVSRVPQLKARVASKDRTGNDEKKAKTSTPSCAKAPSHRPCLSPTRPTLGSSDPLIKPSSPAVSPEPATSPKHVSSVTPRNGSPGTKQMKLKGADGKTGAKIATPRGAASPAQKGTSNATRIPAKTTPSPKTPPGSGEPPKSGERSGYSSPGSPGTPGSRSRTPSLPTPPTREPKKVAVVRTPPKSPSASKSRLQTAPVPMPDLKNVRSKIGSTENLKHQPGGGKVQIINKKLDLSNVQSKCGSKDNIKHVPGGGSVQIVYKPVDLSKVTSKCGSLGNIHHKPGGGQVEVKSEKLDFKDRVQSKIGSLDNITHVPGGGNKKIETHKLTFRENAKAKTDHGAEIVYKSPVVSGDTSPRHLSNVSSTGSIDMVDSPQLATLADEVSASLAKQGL

HEK-293T = assay: Effect on proliferation of HEK293T cells transfected with EGFP-tagged Tau P301L mutant at 1 uM; format: cell-based; settings: human
[10] = system: Microtubule-associated protein tau (Mus musculus), P10637 [P243L]; assay: Inhibition of congo red-induced EGFP-tagged Tau P301L mutant (unknown origin) aggregation expressed in HEK293T cells at 0.5 uM pretreated for 30 mins followed by congo red addition and measured after 24 hrs by DAPI staining-based fluorescence assay; format: cell-based; settings: Homo sapiens

Compound | inhibition [1] [%] | inhibition (Homo sapiens [2]) [%] | Papp at 10 h, 100 ug/ml [3] [×10⁻⁶ cm/s] | also measured
O=C1/C(=C/c2cccc(F)c2)CCc2nc3ccccc3cc21 | 7.2 | 14.7 | 17.2 | 
CN(C)c1ccc2nc3ccc(N(C)C)cc3[s+]c2c1 [METHYLENE BLUE ANHYDROUS] |  |  |  | Kd [4]: 28.2 µM
Nc1c2c(nc3ccccc13)CC/C(=C/c1cccc([N+](=O)[O-])c1)C2=O |  |  | 9.1 | 
O=C1/C(=C/c2cccc(Cl)c2)CCc2nc3ccccc3cc21 | 46.2 | 4.2 | 2 | 
Nc1c2c(nc3ccccc13)CC/C(=C\c1cccc3ccccc13)C2=O | 7.8 | -6.7 | 0.5 | 
C[n+]1c2c(c(N)c3ccccc31)C(=O)/C(=C/c1cccc([N+](=O)[O-])c1)CC2.[I-] | 86.4 | 98.2 | 2.1 | 
COc1cccc(/C=C2\CCc3nc4ccccc4c(N)c3C2=O)c1 | 7.9 | 44.3 | 7.5 | 
O=C1/C(=C/c2ccc([N+](=O)[O-])cc2)CCc2nc3ccccc3cc21 | 2.7 | 6.3 | 3.2 | 
COc1ccc(/C=C2\CCc3nc4ccccc4c(N)c3C2=O)cc1 | -2 | 43.4 | 10.5 | 
Nc1c2c(nc3ccccc13)CCC(Cc1ccccc1)C2=O (stereo not given) | -4 | 10 | 13.9 | 
Nc1c2c(nc3ccccc13)CC/C(=C\c1cccc(Cl)c1)C2=O | 34.2 | -3.1 | 1.1 | 
C[n+]1c2c(c(N)c3ccccc31)C(=O)/C(=C\c1cccc(Cl)c1)CC2.[I-] | 105 | 15.4 | 4.6 | 
Nc1c2c(nc3ccccc13)CC/C(=C\c1ccc(Cl)cc1)C2=O | 24.8 | 7.1 | 30.3 | 
C[n+]1c2c(c(N)c3ccccc31)C(=O)/C(=C/c1ccccc1)CC2.[I-] | 84.7 | 71.2 | 2.4 | 
Nc1c2c(nc3ccccc13)CC/C(=C\c1ccccc1)C2=O | 7.7 | 18.7 | 26.4 | 
Nc1c2c(nc3ccccc13)CC/C(=C\c1ccco1)C2=O | 15.2 | 30.7 | 16.2 | 
Oc1ccc(/C=C/c2cc(O)cc(O)c2)cc1 |  |  |  | inhibition [5]: Active
Nc1c2c(nc3ccccc13)CC/C(=C\c1cccc(F)c1)C2=O | 20.3 | 4.9 | 5.3 | 
C[n+]1c2c(c(N)c3ccccc31)C(=O)/C(=C\c1cccc([N+](=O)[O-])c1)CC2.[I-] | 94.4 | 32 | 1.8 | 
C[n+]1c2c(c(N)c3ccccc31)C(=O)/C(=C/c1cccc(F)c1)CC2.[I-] | 98.7 | 86.3 | 3.6 | 
Nc1c2c(nc3ccccc13)CC/C(=C/c1cccc3ccccc13)C2=O | -6.8 |  | 49.5 | 
C[n+]1c2c(c(N)c3ccccc31)C(=O)/C(=C\c1cccs1)CC2.[I-] | 94.9 | 31.6 | 1.7 | 

Compound | inhibition [1] [%] | inhibition (Homo sapiens [2]) [%] | Papp at 10 h, 100 ug/ml [3] [×10⁻⁶ cm/s] | also measured
Nc1c2c(nc3ccccc13)CC/C(=C\c1cccs1)C2=O | 14.5 | 11.9 | 7.2 | 
O=C1/C(=C/c2ccccc2Cl)CCc2nc3ccccc3cc21 | 3.5 | 14.9 | 7.1 | 
C[n+]1c2c(c(N)c3ccccc31)C(=O)/C(=C/c1cccc3ccccc13)CC2.[I-] | 86.7 | 102 | 4.6 | inhibition [5]: Active; inhibition (Homo sapiens [6]): Active; inhibition [7]: Active; Kd [8]: 16 µM; Kd [4]: 33.7 µM; inhibition [9]: 62.6%; Activity (HEK-293T): Non-Toxic
Nc1c2c(nc3ccccc13)CC/C(=C/c1cccs1)C2=O |  | 5.9 | 10.8 | 
C[n+]1c2c(c(N)c3ccccc31)C(=O)/C(=C/c1cccs1)CC2.[I-] | 99.5 | 95.3 | 1.7 | 
C[n+]1c2c(c(N)c3ccccc31)C(=O)/C(=C/c1cccc(Cl)c1)CC2.[I-] | 91.9 | 98.3 | 4.1 | 
CN(C)c1ccc2nc3ccc(=[N+](C)C)cc-3sc2c1 |  | 80.1 |  | 
C[n+]1c2c(c(N)c3ccccc31)C(=O)/C(=C\c1cccc3ccccc13)CC2.[I-] | 91.2 | 79.2 | 3.5 | 
CN(C)c1ccc2c(c1)Sc1cc(N(C)C)ccc1N2 |  |  |  | inhibition [10]: 74.4%
Nc1c2c(nc3ccccc13)CC/C(=C\c1ccccc1Cl)C2=O | 14.1 | -3.6 | 7.4 | 
Nc1c2c(nc3ccccc13)CC/C(=C/c1cccc(F)c1)C2=O |  |  | 20.3 | 
Nc1c2c(nc3ccccc13)CC/C(=C\c1ccccc1F)C2=O | 37 | 25.3 | 6.9 | 
Nc1c2c(nc3ccccc13)CC/C(=C\c1ccc([N+](=O)[O-])cc1)C2=O | 2.4 | -3.3 | 11.2 | 
O=C1/C(=C/c2ccccc2F)CCc2nc3ccccc3cc21 | -0.5 | 2.9 | 8.3 | 
Nc1c2c(nc3ccccc13)CC/C(=C/c1cccc(Cl)c1)C2=O |  |  | 15.6 | 
O=C1/C(=C/c2ccccc2)CCc2nc3ccccc3cc21 | -3.2 | 20.5 | 8.6 | 
Nc1c2c(nc3ccccc13)CC/C(=C/c1ccccc1)C2=O |  |  | 13.3 | 
Nc1c2c(nc3ccccc13)CC/C(=C\c1cccc([N+](=O)[O-])c1)C2=O | 8.2 |  | 3.3 | 
C[n+]1c2c(c(N)c3ccccc31)C(=O)/C(=C\c1ccccc1)CC2.[I-] | 97.6 | 7.2 | 1.8 | 
C[n+]1c2c(c(N)c3ccccc31)C(=O)/C(=C\c1cccc(F)c1)CC2.[I-] | 89.1 | 23.3 | 2.7 | 
Nc1c2c(nc3ccccc13)CC/C(=C\C=C\c1ccccc1)C2=O | 2 | -3.8 | 1.3 | 
Cc1c2c(nc3ccccc13)CC/C(=C\c1ccccc1)C2=O | 16.6 | 15.7 | 3.1 | 
